Read-outs that look alike come from different tables or passages of the source.
Key:
[1] = system: corn; settings: applied 3 weeks before planting at rates of 2.2 to 9.0 kg/ha; cited from earlier work
[2] = system: barley and wheat; settings: greenhouse studies; cited from earlier work
[3] = system: volunteer wheat (Triticum aestivum L.); settings: cited from earlier work
[4] = system: annual bluegrass (Poa annua L.); settings: pre-emergence or early post-emergence at 0.8 to 4.5 kg/ha; cited from earlier work
[5] = system: wheat crop plants; test: Own experiments: safening effect of mefenpyr-diethyl used with flufenacet; format: in vivo; settings: used with flufenacet (WSSA group 15 herbicide)

| Compound | corn yields [1] | susceptibility of barley and wheat to soil residues relative to corn [2] | control of volunteer wheat ([3]; 1.7 kg/ha or more, wheat in the one- to three-leaf stage) | control of volunteer wheat ([3]; applied pre-emergence soon after planting or at the end of November to wheat in the four-leaf to four-tiller stage) | control of annual bluegrass [4] | safening effect in wheat crop plants [5] |
| --- | --- | --- | --- | --- | --- | --- |
| CCOC1Oc2ccc(OS(C)(=O)=O)cc2C1(C)C (stereo not drawn) [Ethofumesate, 2-ethoxy-2,3-dihydro-3,3-dimethylbenzofuran-5-yl methanesulfonate] | reduced in proportion to the rate | about 10 times | eliminated the wheat | Wheat was not eliminated | eliminated annual bluegrass | – |
| CCOC(=O)C1=NN(c2ccc(Cl)cc2Cl)C(C)(C(=O)OCC)C1 (stereo not drawn) [Mefenpyr-diethyl, ethyl 1-(2,4-dichlorophenyl)-5-(ethoxycarbonyl)-5-methyl-2-pyrazoline-3-carboxylate] | – | – | – | – | – | does not have a safening effect |

From patent US20240334933A1, “USE OF COMPOSITIONS WITH ETHOFUMESATE AND BIXLOZONE IN WHEAT CROPS” (BAYER AKTIENGESELLSCHAFT, priority 2021, published 2024)
